Source: patent US11053204B2, “Pyrimidinyloxy benzene derivatives as herbicides” (FMC Corporation, priority 2015, dated 2021)

Tests used:
Assay in all cases: Test C postemergence, plant response rating
Format in all cases: in vivo
[1] = system: oat, wild (wild oat Avena fatua); details: Avena fatua, post-emergence; for pest or weed control at 16 g/ha: 16 g ai/ha; for pest or weed control at 16 g/ha / pest or weed control at 31 g/ha: scale 0 to 100; for pest or weed control at 31 g/ha: 31 g ai/ha; for pest or weed control at 62 g/ha: 62 g ai/ha; for pest or weed control at 62 g/ha / pest or weed control at 125 g/ha: scale 0 to 100 (0 no effect, 100 complete control); for pest or weed control at 125 g/ha: 125 g ai/ha
Method in brief: (§1)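 Greenhouse plants rated visually against untreated controls 13–15 d after treatment, scale 0 = no effect to 100 = complete control. Postemergence sprays went onto potted plants 2–18 cm tall (1–4 leaves); preemergence sprays onto soil freshly sown in loam–sand or silt loam, chemicals formulated in non-phytotoxic solvent with surfactant.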

[2] = system: velvetleaf (Abutilon theophrasti); details: Abutilon theophrasti, post-emergence; for pest or weed control at 16 g/ha: 16 g ai/ha; for pest or weed control at 16 g/ha / pest or weed control at 31 g/ha: scale 0 to 100; for pest or weed control at 31 g/ha: 31 g ai/ha; for pest or weed control at 62 g/ha: 62 g ai/ha, read-out: Velvetleaf plant response rating; for pest or weed control at 62 g/ha / pest or weed control at 125 g/ha: scale 0 to 100 (0 no effect, 100 complete control); for pest or weed control at 125 g/ha: 125 g ai/ha
Method in brief: as §1

[3] = system: chickweed (common chickweed, Stellaria media); details: Stellaria media, post-emergence; for pest or weed control at 16 g/ha: 16 g ai/ha; for pest or weed control at 16 g/ha / pest or weed control at 31 g/ha: scale 0 to 100; for pest or weed control at 31 g/ha: 31 g ai/ha; for pest or weed control at 62 g/ha: 62 g ai/ha; for pest or weed control at 62 g/ha / pest or weed control at 125 g/ha: scale 0 to 100 (0 no effect, 100 complete control); for pest or weed control at 125 g/ha: 125 g ai/ha
Method in brief: as §1

[4] = system: morningglory (Ipomoea coccinea); details: Ipomoea, post-emergence; for pest or weed control at 16 g/ha: 16 g ai/ha; for pest or weed control at 16 g/ha / pest or weed control at 31 g/ha: scale 0 to 100; for pest or weed control at 31 g/ha: 31 g ai/ha; for pest or weed control at 62 g/ha: 62 g ai/ha; for pest or weed control at 62 g/ha / pest or weed control at 125 g/ha: scale 0 to 100 (0 no effect, 100 complete control); for pest or weed control at 125 g/ha: 125 g ai/ha
Method in brief: as §1

[5] = system: wheat (winter wheat, Triticum aestivum); details: Triticum aestivum, post-emergence; for plant injury at 16 g/ha: 16 g ai/ha; for plant injury at 16 g/ha / plant injury at 31 g/ha: scale 0 to 100; for plant injury at 31 g/ha: 31 g ai/ha; for plant injury at 62 g/ha: 62 g ai/ha, read-out: Wheat plant response rating; for plant injury at 62 g/ha / plant injury at 125 g/ha: scale 0 to 100 (0 no effect, 100 complete control); for plant injury at 125 g/ha: 125 g ai/ha
Method in brief: as §1

[6] = system: blackgrass (Alopecurus myosuroides); details: Alopecurus myosuroides, post-emergence; for pest or weed control at 16 g/ha: 16 g ai/ha; for pest or weed control at 16 g/ha / pest or weed control at 31 g/ha: scale 0 to 100; for pest or weed control at 31 g/ha: 31 g ai/ha; for pest or weed control at 62 g/ha: 62 g ai/ha; for pest or weed control at 62 g/ha / pest or weed control at 125 g/ha: scale 0 to 100 (0 no effect, 100 complete control); for pest or weed control at 125 g/ha: 125 g ai/ha
Method in brief: as §1

[7] = system: ragweed (common ragweed, Ambrosia elatior); details: Ambrosia artemisiifolia, post-emergence; for pest or weed control at 16 g/ha: 16 g ai/ha; for pest or weed control at 16 g/ha / pest or weed control at 31 g/ha: scale 0 to 100; for pest or weed control at 31 g/ha: 31 g ai/ha; for pest or weed control at 62 g/ha: 62 g ai/ha; for pest or weed control at 62 g/ha / pest or weed control at 125 g/ha: scale 0 to 100 (0 no effect, 100 complete control); for pest or weed control at 125 g/ha: 125 g ai/ha
Method in brief: as §1

[8] = system: ryegrass, Italian (Italian ryegrass, Lolium multiflorum); details: Lolium multiflorum, post-emergence; for pest or weed control at 16 g/ha: 16 g ai/ha; for pest or weed control at 16 g/ha / pest or weed control at 31 g/ha: scale 0 to 100; for pest or weed control at 31 g/ha: 31 g ai/ha; for pest or weed control at 62 g/ha: 62 g ai/ha; for pest or weed control at 62 g/ha / pest or weed control at 125 g/ha: scale 0 to 100 (0 no effect, 100 complete control); for pest or weed control at 125 g/ha: 125 g ai/ha
Method in brief: as §1

[9] = system: lambsquarters (Chenopodium album); details: Chenopodium album, post-emergence; for pest or weed control at 16 g/ha: 16 g ai/ha; for pest or weed control at 16 g/ha / pest or weed control at 31 g/ha: scale 0 to 100; for pest or weed control at 31 g/ha: 31 g ai/ha; for pest or weed control at 62 g/ha: 62 g ai/ha; for pest or weed control at 62 g/ha / pest or weed control at 125 g/ha: scale 0 to 100 (0 no effect, 100 complete control); for pest or weed control at 125 g/ha: 125 g ai/ha
Method in brief: as §1

[10] = system: nutsedge, yellow (yellow nutsedge, Cyperus esculentus); details: Cyperus, post-emergence; for pest or weed control at 16 g/ha: 16 g ai/ha; for pest or weed control at 16 g/ha / pest or weed control at 31 g/ha: scale 0 to 100; for pest or weed control at 31 g/ha: 31 g ai/ha; for pest or weed control at 62 g/ha: 62 g ai/ha; for pest or weed control at 62 g/ha / pest or weed control at 125 g/ha: scale 0 to 100 (0 no effect, 100 complete control); for pest or weed control at 125 g/ha: 125 g ai/ha
Method in brief: as §1

[11] = system: barnyardgrass (Echinochloa crus-galli); details: Echinochloa crus-galli, post-emergence; for pest or weed control at 16 g/ha: 16 g ai/ha; for pest or weed control at 16 g/ha / pest or weed control at 31 g/ha: scale 0 to 100; for pest or weed control at 31 g/ha: 31 g ai/ha; for pest or weed control at 62 g/ha: 62 g ai/ha; for pest or weed control at 62 g/ha / pest or weed control at 125 g/ha: scale 0 to 100 (0 no effect, 100 complete control); for pest or weed control at 125 g/ha: 125 g ai/ha
Method in brief: as §1

C=CCOC(=O)c1c(Br)cccc1Oc1ncc(Cl)cn1 [Compound 22, 2-propen-1-yl 2-bromo-6-[(5-chloro-2-pyrimidinyl)oxy]benzoate]
pest or weed control at 16 g/ha [1]: 0% | pest or weed control at 31 g/ha [1]: 0% | pest or weed control at 62 g/ha [1]: 0% | pest or weed control at 125 g/ha [1]: 5% | pest or weed control at 16 g/ha [2]: 50% | pest or weed control at 31 g/ha [2]: 40% | pest or weed control at 62 g/ha [2]: 55% | pest or weed control at 125 g/ha [2]: 85% | pest or weed control at 16 g/ha [3]: 20% | pest or weed control at 31 g/ha [3]: 60% | pest or weed control at 62 g/ha [3]: 65% | pest or weed control at 125 g/ha [3]: 60% | pest or weed control at 16 g/ha [4]: 5% | pest or weed control at 31 g/ha [4]: 10% | pest or weed control at 62 g/ha [4]: 35% | pest or weed control at 125 g/ha [4]: 50% | plant injury at 16 g/ha [5]: 0% | plant injury at 31 g/ha [5]: 0% | plant injury at 62 g/ha [5]: 0% | plant injury at 125 g/ha [5]: 0% | pest or weed control at 16 g/ha [6]: 0% | pest or weed control at 31 g/ha [6]: 0% | pest or weed control at 62 g/ha [6]: 0% | pest or weed control at 125 g/ha [6]: 5% | pest or weed control at 16 g/ha [7]: 5% | pest or weed control at 31 g/ha [7]: 35% | pest or weed control at 62 g/ha [7]: 50% | pest or weed control at 125 g/ha [7]: 50% | pest or weed control at 16 g/ha [8]: 0% | pest or weed control at 31 g/ha [8]: 0% | pest or weed control at 62 g/ha [8]: 0% | pest or weed control at 125 g/ha [8]: 5% | pest or weed control at 16 g/ha [9]: 65% | pest or weed control at 31 g/ha [9]: 70% | pest or weed control at 62 g/ha [9]: 70% | pest or weed control at 125 g/ha [9]: 75% | pest or weed control at 16 g/ha [10]: 0% | pest or weed control at 31 g/ha [10]: 0% | pest or weed control at 62 g/ha [10]: 5% | pest or weed control at 125 g/ha [10]: 5% | pest or weed control at 16 g/ha [11]: 5% | pest or weed control at 31 g/ha [11]: 5% | pest or weed control at 62 g/ha [11]: 10% | pest or weed control at 125 g/ha [11]: 10%

O=C(OCC(F)(F)C(F)(F)F)c1c(Br)cccc1Oc1ncc(Cl)cn1 [Compound 23, 2,2,3,3,3-pentafluoropropyl 2-bromo-6-[(5-chloro-2-pyrimidinyl)oxy]benzoate]
pest or weed control at 16 g/ha [1]: 5% | pest or weed control at 31 g/ha [1]: 5% | pest or weed control at 62 g/ha [1]: 10% | pest or weed control at 125 g/ha [1]: 5% | pest or weed control at 16 g/ha [2]: 10% | pest or weed control at 31 g/ha [2]: 35% | pest or weed control at 62 g/ha [2]: 35% | pest or weed control at 125 g/ha [2]: 40% | pest or weed control at 16 g/ha [3]: 5% | pest or weed control at 31 g/ha [3]: 50% | pest or weed control at 62 g/ha [3]: 50% | pest or weed control at 125 g/ha [3]: 85% | pest or weed control at 16 g/ha [4]: 10% | pest or weed control at 31 g/ha [4]: 55% | pest or weed control at 62 g/ha [4]: 60% | pest or weed control at 125 g/ha [4]: 35% | plant injury at 16 g/ha [5]: 0% | plant injury at 31 g/ha [5]: 0% | plant injury at 62 g/ha [5]: 0% | plant injury at 125 g/ha [5]: 0% | pest or weed control at 16 g/ha [6]: 0% | pest or weed control at 31 g/ha [6]: 5% | pest or weed control at 62 g/ha [6]: 15% | pest or weed control at 125 g/ha [6]: 20% | pest or weed control at 16 g/ha [7]: 15% | pest or weed control at 31 g/ha [7]: 35% | pest or weed control at 62 g/ha [7]: 40% | pest or weed control at 125 g/ha [7]: 50% | pest or weed control at 16 g/ha [8]: 0% | pest or weed control at 31 g/ha [8]: 0% | pest or weed control at 62 g/ha [8]: 5% | pest or weed control at 125 g/ha [8]: 5% | pest or weed control at 16 g/ha [9]: 25% | pest or weed control at 31 g/ha [9]: 55% | pest or weed control at 62 g/ha [9]: 65% | pest or weed control at 125 g/ha [9]: 80% | pest or weed control at 16 g/ha [10]: 0% | pest or weed control at 31 g/ha [10]: 0% | pest or weed control at 62 g/ha [10]: 5% | pest or weed control at 125 g/ha [10]: 10% | pest or weed control at 16 g/ha [11]: 10% | pest or weed control at 31 g/ha [11]: 10% | pest or weed control at 62 g/ha [11]: 10% | pest or weed control at 125 g/ha [11]: 20%
